Test results published in patent US20210213010A1, “TLR7/8 AGONISTS AND LIPOSOME COMPOSITIONS” (Torque Therapeutics, Inc., priority 2018, published 2021).
“Also recorded” adds a separate entry of the source.

Tests used:
[1] = tested on: whole human blood; assay: IL-6 cytokine expression in stimulated whole human blood (ELISA); type: cell-based
Description: (§1) This example describes the general procedure used to assess the level of cytokine IL-6 and IL-12p40 expressions upon stimuli of whole human blood with small molecules or small molecules in liposomal formulations F1 and F2. 10 mM DMSO solutions of the small molecules were diluted in RPMI media (RPMI-1640, Sigma Aldrich) with 1% penicillin/streptomycin (p/s). […], of each dilution was transferred to Nunc™ 96-Well Polystyrene Conical Bottom MicroWell™ Plates in duplicates. Blood was drawn from two human donors, diluted in RPMI with 1% p/s and added to each well to reach final concentrations of 10 μM, 1 μM, and 0.1 μM of the small molecules. The plates were incubated at 37° C. in a cell incubator for 24h. The plates were then spun down in a plate centrifuge with 3200 revolutions per minute (rpm) for 10 min before 50 uL of the supernatant was transferred to new 96-well plates. The supernatant samples were subsequently stored at −80° C. until the day of cytokine measurements.
(§2) The level of cytokine expression was measured using either an IL-6 ELISA Kit (RnDSystems, cat #DY206) for IL-6, or an IL-12p40 ELISA Kit (RnDSystems, cat #DY1240) according to the manufacturer's protocols. This general procedure was used to generate the examples 24-33.

[2] = Remote loading efficiency of small molecules into liposomes (PD-10 size exclusion, HPLC); type: physicochemical
Description: A solution of the small molecule (modified TLR agonist) was lyophilized in a vial equipped with a magnetic stir bar over night to form a fluffy white powder. This powder was added either formulation F1 or F2 to the wanted drug/lipid ratio. The resulting mixture was stirred at 55° C. or 41° C. for formulation F1 and F2 respectively for 3h, then allowed to cool to rt before the solutions were refrigerated and stored at 4° C.
Remote loading efficiency was determined at 1 h and 3 h by taking out 100 μL of the mixture and applying this and 900 μL buffer (25 mM HEPES, 10 vol % sucrose buffer, pH 7.4) to a PD-10 column size exclusion column. Following, 10×1 mL fractions were collected, and the small molecule compound concentrations in the loading mixture and in the liposome containing fractions were determined on analytical HPLC. Loading efficiency was calculated as percentage of molecules found in liposome containing fractions out of the applied amount. The general procedure for the small molecule remote loading is visualized in FIG. 3. The general concept of remote loading imidazoquinolines in liposomes that are dialyzed against HEPES is visualized in FIG. 4.

[3] = tested on: whole human blood; assay: IL-12p40 cytokine expression in stimulated whole human blood (ELISA); type: cell-based
Description: as §1, §2

[4] = tested on: RAW-Blue cells; assay: NF-κB induction in RAW-Blue reporter cells (RAW 264.7 macrophages, SEAP); type: cell-based; conditions: for EC50: RAW-Blue, sigmoidal 4PL fitting, 24 h
Excerpt: This example describes the general procedure used to assess the compounds' potency to induce NF-κB expression in RAW 264.7 macrophages cells that stably express secreted embryonic alkaline phosphatase (SEAP) upon induction of NF-κB. RAW-Blue™ reporter cells are commonly used for quantifying TLR7/8 agonist potencies in reporter cell assays. Conversely, we used RAW-Blue™ cells to evaluate the potencies of the synthesized derivatives, as previously reported^1. ^1 Ryu et al, J. Am. Chem. Soc. (2014), 136, 10823-10825
RAW 264.7 assays were carried out using RAW-Blue™ cells and QUANTI-Blue™ detection solution (Invivogen, Toulouse, France, at. #raw-sp and rep-qbs respectively). The assays carried out according to the protocol from Invivogen. RAW 264.7 macrophages were cultured in DMEM high glucose (4.5 g/L) supplemented with 10% (v/v) FBS, 1% (v/v) P/S, and Normocin™ (100 μg/ml). On the day of the study, the cells were seeded in a 96-well plate (ThermoFisher Scientific, Roskilde, Denmark) with 20 μL TLR7/8 agonist solutions per well at varying concentrations by adding 180 μL cell suspension, made by suspending cells to 0.55×10^6 cells per mL in the prepared cell medium added Zeocin™ (200 μg/ml), leading to a final concentration of 100×10^3 cells per well in triplicates. Cells were incubated with the TLR7/8 agonists, diluted from 10 mM DMSO stocks in PBS, at 37° C. with 5% CO2 for 24 h for SEAP production. 50 μL SEAP containing cell supernatant from each well was added 150 μL QUANTI-Blue™ detection solution and was incubated at 37° C. for 3-6 h. The resulting response was quantified spectrophotometrically at 640 nm and was normalized to the signal from a blank sample (DMSO dilution) run in parallel.
Half maximal effective concentration (EC50) values were determined from sigmoidal 4PL fittings from the resulting dose-response curves in GraphPad Prism.

[5] = remote loaded in formulation F1, HEPES, drug/lipid ratio 0.1
[6] = remote loaded in formulation F2, HEPES, drug/lipid ratio 0.1
[7] = formulation F1, HEPES, drug/lipid ratio 0.10, 1 h
[8] = formulation F1, HEPES, drug/lipid ratio 0.10, 3 h
[9] = formulation F2, HEPES, drug/lipid ratio 0.10, 1 h
[10] = formulation F2, HEPES, drug/lipid ratio 0.10, 3 h
[11] = free small molecule, 10, 1, 0.1 μM, 24 h, two donors

Structure (SMILES) | Remote loading efficiency 1 h (%) [2, 7] | Remote loading efficiency 3 h (%) [2, 8] | Remote loading efficiency 1 h (%) [2, 9] | Remote loading efficiency 3 h (%) [2, 10] | EC50 [4] | Expression of IL-6 upon stimulation of whole human blood [1, 5] | Expression of IL-6 upon stimulation of whole human blood [1, 6] | Expression of IL-12p40 upon stimulation of whole human blood [3, 5] | Expression of IL-12p40 upon stimulation of whole human blood [3, 6] | Expression of IL-6 upon stimulation of whole human blood [1, 11] | Expression of IL-12p40 upon stimulation of whole human blood [3, 11] | also measured
CCOCc1nc2c(N)nc3ccccc3c2n1CCNC(=O)CN [MK087, 2-amino-N-(2-(4-amino-2-(ethoxymethyl)-1H-imidazo[4,5-c]quinolin-1-yl)ethyl)acetamide] | 72% | 73% | 52% | 60% | – | capable of inducing expression of IL-6 at 10 μM | capable of inducing expression of IL-6 at 10 μM; also recorded: not capable of inducing expression of IL-6 in donor 1 | none of the small molecules Gardiquimod, MK087, MK088, and MK089 were capable of inducing expression of IL-12p40 | not capable of inducing expression of IL-12p40 | – | – | –
CCOCc1nc2c(N)nc3ccccc3c2n1CCNC(=O)[C@H](C)N [MK088, (S)-2-amino-N-(2-(4-amino-2-(ethoxymethyl)-1H-imidazo[4,5-c]quinolin-1-yl)ethyl)propanamide] | 110% | 115% | 95% | 95% | – | capable of inducing expression of IL-6 at 10 μM | capable of inducing expression of IL-6 at 10 μM; also recorded: not capable of inducing expression of IL-6 in donor 1 | none of the small molecules Gardiquimod, MK087, MK088, and MK089 were capable of inducing expression of IL-12p40 | capable of inducing expression of IL-12p40 in one donor at 10 μM | induced expression of IL-6 at 10 μM in donor 2 | induced expression of IL-12p40 at 10 μM in donor 2; also recorded: the most potent inducer of IL-12p40 | –
CCOCc1nc2c(N)nc3ccccc3c2n1CCNC(=O)C(C)(C)N [MK090, 2-amino-N-(2-(4-amino-2-(ethoxymethyl)-1H-imidazo[4,5-c]quinolin-1-yl)ethyl)-2-methylpropanamide] | – | – | – | – | – | – | – | – | – | induced expression of IL-6 at 10 μM in donor 2; also recorded: able to induce expression of IL-6 in both donors; also recorded: the most potent inducer of IL-6 | induced expression of IL-12p40 at 10 μM in donor 2 | –
CCOCc1nc2c(N)nc3ccccc3c2n1CCNC(=O)[C@@H](N)CC(C)C [MK091, (S)-2-amino-N-(2-(4-amino-2-(ethoxymethyl)-1H-imidazo[4,5-c]quinolin-1-yl)ethyl)-4-methylpentanamide] | – | – | – | – | – | – | – | – | – | induced expression of IL-6 at 10 μM in donor 2 | induced expression of IL-12p40 at 10 μM in donor 2 | –
CCOCc1nc2c(N)nc3ccccc3c2n1CCNC(=O)[C@@H](N)CCSC [MK093, (S)-2-amino-N-(2-(4-amino-2-(ethoxymethyl)-1H-imidazo[4,5-c]quinolin-1-yl)ethyl)-4-(methylthio)butanamide] | – | – | – | – | – | – | – | – | – | induced expression of IL-6 at 10 μM in donor 2 | induced expression of IL-12p40 at 10 μM in donor 2 | –

Further lines, with some results ahead:

Remote loading efficiency 1 h (%) [2, 7] | Remote loading efficiency 3 h (%) [2, 8] | Remote loading efficiency 1 h (%) [2, 9] | Remote loading efficiency 3 h (%) [2, 10] | EC50 [4] | Structure (SMILES) | Expression of IL-6 upon stimulation of whole human blood [1, 5] | Expression of IL-6 upon stimulation of whole human blood [1, 6] | Expression of IL-12p40 upon stimulation of whole human blood [3, 5] | Expression of IL-12p40 upon stimulation of whole human blood [3, 6] | Expression of IL-6 upon stimulation of whole human blood [1, 11] | Expression of IL-12p40 upon stimulation of whole human blood [3, 11] | also measured
122% | 128% | 100% | 104% | – | CCOCc1nc2c(N)nc3ccccc3c2n1CCNC(=O)[C@@H](N)C(C)C [MK089, (S)-2-amino-N-(2-(4-amino-2-(ethoxymethyl)-1H-imidazo[4,5-c]quinolin-1-yl)ethyl)-3-methylbutanamide] | No induction of IL-6 expression | capable of inducing expression of IL-6 at 10 μM; also recorded: capable of inducing expression of IL-6 in both donors | none of the small molecules Gardiquimod, MK087, MK088, and MK089 were capable of inducing expression of IL-12p40 | capable of inducing expression of IL-12p40 in one donor at 10 μM | induced expression of IL-6 at 10 μM in donor 2 | – | –
– | – | – | – | 120 nM | CCCCc1nc2c(N)nc3ccccc3c2n1Cc1ccc(CNC(C)=O)cc1 [MK132, N-(4-((4-amino-2-butyl-1H-imidazo[4,5-c]quinolin-1-yl)methyl)benzyl)acetamide] | – | – | – | – | – | – | –
– | – | – | – | 130 nM | CCCCc1nc2c(N)nc3ccccc3c2n1Cc1ccc(CNC(=O)[C@@H](N)Cc2ccc(O)cc2)cc1 [MK141, (S)-2-amino-N-(4-((4-amino-2-butyl-1H-imidazo[4,5-c]quinolin-1-yl)methyl)benzyl)-3-(4-hydroxyphenyl)propanamide] | – | – | – | – | – | – | Remote loading efficiency 1 h (%) ([2]; formulation F3, drug/lipid ratio 0.10, 1 h, mean (SD), n = 2): 83.8 (3.0) %; Remote loading efficiency 3 h (%) ([2]; formulation F3, drug/lipid ratio 0.10, 3 h, mean (SD), n = 2): 81.2 (2.1) %
– | – | – | – | 50 nM | CCCCc1nc2c(N)nc3ccccc3c2n1Cc1ccc(CNC(=O)CC)cc1 [MK148, N-(4-((4-amino-2-butyl-1H-imidazo[4,5-c]quinolin-1-yl)methyl)benzyl)propionamide] | – | – | – | – | – | – | Potency in the RAW-Blue cell assay ([4]; compared with R848): greater potencies than R848
